Source: publication PMC11134331, “Cell-active small molecule inhibitors validate the SNM1A DNA repair nuclease as a cancer target” (Chemical Science, 2024)

Key:
SNM1B = target: T1, SNM1B (Homo sapiens, UniProt Q9H816); assay: gel-based nuclease assay, SNM1B; assay type: biochemical; conditions: 1 nM SNM1B
T1 construct: for the MBL and β-CASP domains of SNM1B (aa 1–335) into baculoviral expression vectors pFB-CT10HF-LIC; made in house; host or cells: Sf9 insect cells (baculovirus)
T1 sequence (Q9H816 1-335): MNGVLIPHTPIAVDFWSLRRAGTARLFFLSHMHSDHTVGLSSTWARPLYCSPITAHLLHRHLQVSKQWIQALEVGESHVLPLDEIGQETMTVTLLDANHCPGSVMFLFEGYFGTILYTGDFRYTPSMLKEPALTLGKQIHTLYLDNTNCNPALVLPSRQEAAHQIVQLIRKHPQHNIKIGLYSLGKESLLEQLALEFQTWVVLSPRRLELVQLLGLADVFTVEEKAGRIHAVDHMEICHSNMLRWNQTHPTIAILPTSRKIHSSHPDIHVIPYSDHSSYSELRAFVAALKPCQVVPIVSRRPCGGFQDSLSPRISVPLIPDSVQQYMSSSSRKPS
Description: To validate the inhibition of SNM1A, SNM1B, and SNM1C observed in the fluorescence-based screening assays, we then performed gel-based assays using 3′ terminally-labelled oligonucleotide substrates that enable both quantitative and qualitative (visual) assessment of the pattern of inhibition, for a subset of compounds. Importantly, whereas the fluorescence-based assay measures a single hydrolytic event at the substrate terminus, the gel-based nuclease assay informs on the pattern of digestion of the entire 51-mer substrate DNA over time.
Standard exonuclease assays were carried out in a 10 μL final volume containing 20 mM HEPES-KOH, pH 7.5, 50 mM KCl, 0.5 mM TCEP, 10 mM MgCl2, 0.05% (v/v) Triton X-100, 5% (v/v) glycerol, and SNM1 proteins as indicated. Inhibitors were dissolved in DMSO and diluted immediately prior to the reaction in the above buffer. Inhibitors were serially diluted two-fold from 100 μM. The DMSO concentration was kept constant at 0.1% (v/v) in the final reaction mixture. Inhibitors were incubated with the indicated SNM1 enzyme for 10 minutes at room temperature; reactions were initiated by addition of 10 nM DNA substrate and incubated at 37 °C for 20 min. Reactions were quenched by addition of 5 μL stop solution (95% formamide, 10 mM EDTA, 0.25% (v/v) xylene cyanol, 0.25% (v/v) bromophenol blue) and heated at 95 °C for 3 min. Reactions were analysed by 20% denaturing polyacrylamide gel electrophoresis solution of 19 : 1 acrylamide:bis-acrylamide, BioRad and 7 M urea (Sigma Aldrich) in 1 × TBE (Tris-borate EDTA) buffer. Electrophoresis was carried out at 525 V for 75 minutes; gels were subsequently fixed for 60 minutes in a 50% (v/v) methanol, 10% (v/v) acetic acid solution, and dried at 80 °C for two hours under vacuum. Dried gels were exposed to a Kodak Phosphor imager screen and scanned using a Typhoon 9500 instrument (GE Healthcare), scanned images were quantified using ImageJ.
Suppl. Figure 10. Increasing concentrations (as indicated, in μM) of compounds incubated with 1 nM SNM1B or 2.5 nM SNM1C (room temperature, 10 min), before initiating nuclease reaction by addition of ssDNA (37 °C, 20 min). Products were analysed by 20% denaturing PAGE. Gels are representative versions from a minimum of three independent experimental repeats.
(1 picture or pasted object on this page, not shown here)

SNM1A = target: T2, SNM1A (Homo sapiens, UniProt Q6PJP8); assay: real-time fluorescence-based nuclease assay, SNM1A; assay type: biochemical; parameters: DNA encoding for the MBL and β-CASP domains of SNM1A (aa 676–1040) was cloned into the baculovirus transfer vector pFB-LIC-Bse; inferred from vector pFB-LIC-Bse and the IMAC purification; made in house; host or cells: Sf9 insect cells (baculovirus); conditions: SNM1A IC50, real-time fluorescence-based nuclease assay; resynthesised compounds
T2 sequence (Q6PJP8 676-1040): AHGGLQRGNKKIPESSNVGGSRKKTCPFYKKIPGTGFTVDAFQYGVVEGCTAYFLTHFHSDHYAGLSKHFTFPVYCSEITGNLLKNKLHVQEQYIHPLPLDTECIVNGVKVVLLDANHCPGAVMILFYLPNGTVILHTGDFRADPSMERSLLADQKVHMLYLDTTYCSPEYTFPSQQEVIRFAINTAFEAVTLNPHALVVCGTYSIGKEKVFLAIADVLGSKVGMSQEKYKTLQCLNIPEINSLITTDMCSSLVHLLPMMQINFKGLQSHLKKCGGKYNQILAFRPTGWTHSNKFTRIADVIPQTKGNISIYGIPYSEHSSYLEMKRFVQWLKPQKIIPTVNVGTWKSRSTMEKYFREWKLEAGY
Experimental: In brief, the fluorescence-based nuclease assay utilises a chemically modified 20-nucleotide ssDNA substrate with a fluorescein isothiocyanate (FITC) derived 5′-group and an internal black-hole-quencher-1 (BHQ-1), located eight nucleotides distal to the fluorescein group. In the intact substrate the BHQ-1 suppresses fluorescence, however, exonucleolytic digestion of the substrate from the 5′ end by SNM1A uncouples the BHQ-1 and FITC moieties (see Fig. 1D). Spectra were measured every 140 seconds with an increase in fluorescence indicating enzymatic activity by SNM1A (concentration: 0.1 nM).
Fluorescence-based nuclease digestion SNM1A–C assays were performed as described.[30,45] In the case of SNM1A and SNM1B, a 20-mer oligonucleotide with a 5′ FITC-conjugated-T and an internal BHQ-1 (black hole quencher) conjugated-T, eight nucleotides distal (3′) to the fluor was utilised; whereas for SNM1C a 20-mer oligonucleotide with a 5′ FITC-conjugated-T and a 3′ BHQ-1(black hole quencher) was used to capture all possible endonucleolytic incisions. Reactions (25 μL) were performed in 384 well microplates in nuclease buffer (20 mM HEPES-KOH pH 7.5, 50 mM KCl, 10 mM MgCl2, 0.5 mM TCEP, 0.05% (v/v) Triton-X, 0.1 mg mL^−1 BSA, 5% (v/v) glycerol) with SNM1A/B/C (0.1 nM SNM1A, 0.5 nM SNM1B and 1 nM SNM1C) as indicated. Proteins were incubated for 10 min at RT with the stated compound where applicable, before the reaction was initiated with the addition of 10 nM DNA substrate. […] Fluorescence spectra were measured every 140 s, for 35 min, at 37 °C. The fluorescence intensity of each well was plotted against compound concentration and fitted using a log (inhibitor) response curve using GraphPad Prism software (GraphPad Software, Inc., La Jolla, CA, USA).

C[C@H](Nc1nc(NCc2ccco2)nc2ccc(Cl)cc12)C(=O)NO [compound 19]
inhibition of SNM1B in gel-based assay (SNM1B): inhibits each of SNM1A–C
IC50 (SNM1A): 44 µM
